Patent US5629298A, “Adenosine as a positive inotrop in the compromised heart” (University of Massachusetts Medical Center, priority 1995, dated 1997)

Legend:
[1] = system: cultured ventricular myocytes; experiment: cAMP content of cultured ventricular myocytes (125I-cAMP RIA); assay type: cell-based, rat; conditions: 1 μM DMPX (FIG. 12)
Procedure: When myocytes were to be used for biochemical studies, each of the culture dishes was preincubated for 2 hours with 1 ml of MEM containing 33 μg of laminin in a 37° C. incubator gassed with 5% CO2 in room air. The laminin solution was removed prior to myocyte seeding. After seeding, the dishes were incubated for an additional 2 hours. The settling and short term culture procedures were performed to purify the myocytes so that >95% of the myocytes adhering to the dishes were rod shaped.
Cyclic AMP levels were determined in cultures of ventricular myocytes according to the following method. After the 2-hour incubation period, the MEM was aspirated and replaced with 2 ml of fresh MEM. Adenosine agonists, ISO, or adenosine antagonists were added to the medium bathing the cells at the concentrations and times indicated. The experiment was terminated by removing the medium from the dish and adding 200 μl of 1N HCl over the cultured myocyte surface. The dishes were then frozen in liquid N2 and stored at -70° C. or held on ice momentarily until extraction was initiated.
For assay, the contents of the dishes were transferred (using 1 ml of distilled/deionized H2 O) into microcentrifuge tubes. The extracts were heated for 1 hour at 57° C. and sonicated for 10 minutes. The extracts were then centrifugated at 14,000 x g for 15 minutes. The supernatant was removed, evaporated, reconstituted in 500 μl of 50 mM sodium acetate buffer and assayed for cAMP using an ^125 I-cAMP RIA kit (Amersham). The pellet was solubilized with 0.1N NaOH and protein determined. The cAMP values are reported in pmol cAMP/mg protein of the extract pellet (total cell protein). This cAMP assay procedure routinely provided recovery values in excess of 90%.

rat ventricular myocytes = experiment: Contractile function of individual ventricular myocytes (line scan camera edge detection, paced at 0.5 Hz); assay type: cell-based
Procedure: Primary cultures of adult rat ventricular myocytes were prepared essentially according to previously described methods (Romano et al., Am. J. Physiol. 257:H1088 (1989)). Two male Sprague-Dawley rats (Charles River, Wilmington, Mass. or Harlan, Indianapolis, Ind.) were decapitated, and the hearts were rapidly excised and constant pressure (70 cm H2) and nonrecirculated) perfused for 10 minutes through the aortas with filtered (0.45 μm membrane filter) perfusing solution (NaCl, 118 mM; glucose, 10 mM; NaHCO3 25 mM; KCl, 4.69 mM; MgSO4 1.18 mM; and KH2 PO4, 1.18 mM; (pH 7.4)), to which […] was added, at 37° C. After equilibration, the hearts were constant pressure perfused with fresh physiological saline ("PS") containing no added Ca^2+ until spontaneous contractions ceased (i.e., ~30 seconds). The hearts were then perfused for 4-10 minutes in a nonrecirculating manner with PS containing 0.73 mg/ml collagenase, 0.16 mg/ml hyaluronidase, 1 mg/ml recrystallized bovine serum albumin ("BSA") and 48.4 μM Ca^2+ at a rate of 3-4 ml/min/heart. Ventricles, free of atria, were removed from the perfusion system, cut into 8 pieces and placed in a 50 ml Erlenmeyer flask with 5 ml of PS containing 0.73 mg/ml collagenase, 0.16 mg/ml hyaluronidase, 2.5 mg/ml BSA, and 50 μM Ca^2+ (incubation solution). The flask was gently shaken (40 cycles/min) in a reciprocating water bath with continuous gassing (95% O2, 5% CO2) for 7 minutes at 37° C. The incubation solution was aspirated and this shaking procedure was repeated with fresh incubation solution 3-5 times depending on the likelihood that the tissue was ready to dissociate. After the final incubation period, the solution was aspirated and replaced with 10 ml of fresh incubation solution. The flask was then shaken rapidly (120 cycles/min) for 10 minutes with gassing to dissociate the myocytes. The flask contents were filtered through a 250 μm nylon mesh into a 50 ml polypropylene centrifuge tube, to which 40 ml of PS containing 5.95 mg/ml BSA and 99.7 μm Ca^2+ (wash solution) was gradually added.
The myocytes were allowed to settle for 15 minutes, and the upper two thirds of the wash solution was aspirated. Upon the addition of 30-35 ml of wash solution, this settling step was repeated. The wash solution was aspirated and the myocyte pellet was resuspended in 10 ml of minimum essential medium ("MEM"). The myocyte suspension was allowed to settle for 5 minutes and then brought to a final volume of 22 ml with MEM. Two milliliters of the myocyte suspension was seeded onto each of 60 mm culture dishes containing 2 ml of MEM.
The contractile function of individual myocytes was assessed by dispersing 50-100 cells in a 506 μl myocyte chamber (11×23×2 mm deep). The chamber (FIG. 1) was continuously suffused (850 μl/min) with fresh suffusion solution ("SS") in mM: 136.4 NaCl, 4.7 KCl, 1.0 CaCl2, 10 hydroxyethylpiperzine-ethanesulfonicacid (HEPES), 1.0 NaHCO3, 1.2 MgSO4, 1.2 KH2 PO4, 10 glucose, 0.6 ascorbate, 1.0 pyruvate) at 20° C. The chamber was mounted on an inverted microscope stage and contained platinum wire electrodes for initiating myocyte contraction at 0.5 Hz (voltage 10% above threshold for 5 msec duration).
The image of the myocyte was projected via an inverted microscope at 300× onto a line scan camera (Fairchild, Model 1600R) containing a linear array (1×3456) of photodiodes. When aligned with the longitudinal axis of the cell the camera detected the movement of the 2 ends of the myocyte upon contraction (shortening and relengthening). […] When the myocyte was transilluminated, both ends of the cell were easily discriminated. Myocyte length and length change with respect to time for a single contraction was measured by determining the pixels in which the appropriate transitions between light and dark occurred. The line scan camera was calibrated with a stage micrometer scaled in 10 μm divisions. The signals from the camera were directed to a Hewlett Packard computer (Model Vectra RS/20C). […]

[2] = system: ventricular myocyte membrane adenylyl cyclase; experiment: Adenylyl cyclase activity of ventricular myocyte membranes; assay type: biochemical, rat; conditions: DPCPX at 0.1 μM
Procedure: After a 3-4 hour incubation period, myocytes were harvested by placing the culture dishes on ice; aspirating and discarding the culture medium; scraping the attached cells into 1 ml of ice cold buffer (pH 7.4) containing 10 mM HEPES and 1 mM dithiothreitol (DTT); and transferring the mixture to a 40 ml centrifuge tube. The culture dishes were rinsed twice with buffer, and the rinses were added to the centrifuge tube. The myocytes were centrifuged at 45,000 x g for 45 minutes and the supernatant was discarded. The pellet was resuspended in 40 mM HEPES (pH 7.4) to yield 3.5-4 mg protein/ml and homogenized with a small clearance Dounce tissue grinder (8 strokes). The membranes were centrifugated as described above, resuspended (3-4 mg protein/ml) in 40 mM HEPES (pH 7.4), and assayed for adenylyl cyclase activity immediately or stored at -80° C. and assayed within 10 days.
The assay system used to measure adenylyl cyclase activity minimizes the formation of endogenous adenosine. The assay used was essentially as described by Romano et al. (supra). Myocyte membranes (15-25 μg protein) were incubated in 50 μl of a buffer containing 40 mM HEPES (pH 7.4), 5 mM MgCl2, 1 mM DTT, 5.5 mM KCl, 0.1 mM 2'-deoxy-cAMP (dcAMP), 0.1 mM 2'-deoxy ATP (dATP), 20 mM phosphoenolpyruvate, 2 units pyruvate kinase, 0.25 units adenosine deaminase, 1 mM ascorbic acid, 100 mM NaCl, 0.1 mM ethyleneglycol-bis (β-aminoethylether) N,N,N',N',-tetroaceticacid (EGTA), 10 μM guanosine 5'-triphosphate (GTP), and ~2×10^6 counts/minutes of [α-^32 P]dATP for 20 minutes at 30° C. The reaction was stopped by adding 40 μl of a solution containing 2% sodium dodecyl sulfate (SDS), 45 mM ATP, 1.3 mM cAMP, and [^3 H]dcAMP (~4000 count/min) and by boiling for 2 minutes.

[3] = Table 6, 10^-5 M SHA-082, 10^-5 M NECA, 10^-4 M adenosine, 2 × 10^-7 M DPCPX, 10^-5 M CGS-15943, mean ± SE, N = 6
[4] = addition of 0.1 μM DPCPX to 1 μM PIA + 0.1 μM ISO

SMILES	effect on the increase in cAMP caused by 10 μM CGS-21680 [1]	effect on myocyte contractility when administered alone (rat ventricular myocytes; 100 μM adenosine or 0.2 μM DPCPX)	effect on the PIA reduction of the ISO induced contractile responses (rat ventricular myocytes; DPCPX at 0.2 μM, ISO 0.2 μM, PIA 2 μM)	+dL/dtmax, maximal rate of shortening (rat ventricular myocytes; [3]) [μm/msec]	-dL/dtmax, maximal rate of relaxation (rat ventricular myocytes; [3]) [μm/msec]	DS, duration of shortening (rat ventricular myocytes; [3]) [ms]	LC, maximum length change (shortening) with contraction (rat ventricular myocytes; [3]) [μm]	TPS, time-to-peak shortening (rat ventricular myocytes; [3]) [ms]	TR, time to 75% relaxation (rat ventricular myocytes; [3]) [ms]	further increase of the ISO induced enhancement in +dL/dtmax (rat ventricular myocytes; [4]) [%]	further increase of the ISO induced enhancement in LC (rat ventricular myocytes; [4]) [%]	lowering of DS below that observed in the presence of PIA+ISO (rat ventricular myocytes; [4]) [%]	effect on the PIA inhibition of ISO stimulated adenylyl cyclase activity [2]
C#CCn1c(=O)c2c(ncn2C)n(C)c1=O [DMPX, 3,7-dimethyl-1-propargylxanthine]	prevented												
CCCn1c(=O)c2[nH]c(C3CCCC3)nc2n(CCC)c1=O [DPCPX, 1,3-dipropyl-8-cyclopentylxanthine]		without effect	reversed	179 ± 9	147 ± 11	279 ± 15	17 ± 1	116 ± 3	264 ± 11	40	26	27	prevented
